Source: patent US11220522B2, “Cytotoxic platinum complex, its preparation and therapeutic use” (City University of Hong Kong, priority 2016, dated 2022)

What was measured:
[1] = system: cisplatin-resistant A549cisR cells; assay: MTT cytotoxicity assay, A549cisR cells
Description: (§1) Human ovarian carcinoma A2780 and cisplatin-resistant A2780cisR cells were cultured in RPMI 1640 with 10% FBS and 100 units penicillin/streptomycin. Human breast adenocarcinoma MCF-7, human colorectal carcinoma HCT116, human lung carcinoma A549, and cisplatin-resistant A549cisR cells were cultured in DMEM containing 10% FBS and 100 units penicillin/streptomycin. Human fetal lung fibroblast MRC-5 cells were cultured in MEM with 10% FBS, 1% L-glutamine, 1% non-essential amino acids, and 1% sodium pyruvate. […] All cells were incubated at 37° C. in 5% CO2.
(§2) For each of these assays, cells were seeded in 96-well plates at a certain density. For instance, A2780 cells were seeded in a 96-well plate at the density of 1,500 cells per well and incubated till the confluence reached about 30%. Cells were then treated with medium containing varying concentrations of compounds for 72 h at 37° C. in 5% CO2. […] For MTT assay, after incubation for 72 h, the medium containing compounds was replaced by FBS-free medium with 1 mg/mL MTT for 4 h incubation. DMSO was added to each well when the medium containing MTT was removed after incubation. The absorbance was measured at 570 and 630 nm. Cells incubated with medium containing 1% DMF only were used as controls. The seeded cell density for A549, MCF-7 and HCT116 was 1,500 cells/well, and for A2780cisR, A549cisR, and MRC-5 was 2,500 cells were seeded to each well. The absorbance was tested at 570 and 630 nm.
(§3) Values are the average of the 96-wells for each tested compound, and the reported errors are the corresponding standard deviations.

[2] = system: cisplatin-resistant A2780cisR cells; assay: MTT cytotoxicity assay, A2780cisR cells
Description: as §1, §2, §3

[3] = MTT cytotoxicity assay, MRC-5 normal cells; settings: human, MRC-5 fetal lung fibroblast cells (normal cells)
Description: as §1, §2, §3

[4] = system: human colorectal carcinoma HCT116 cells; assay: MTT cytotoxicity assay, HCT116 cells; assay type: cell-based; settings: maximum over the cells tested (HCT116)
Description: The absorbance was measured at 570 and 630 nm. […].

[5] = system: Human fetal lung fibroblast MRC-5 cells
Description: as §1, §2, §3

[6] = system: Human ovarian carcinoma A2780 cells
Description: as §1
(§4) For each of these assays, cells were seeded in 96-well plates at a certain density. For instance, A2780 cells were seeded in a 96-well plate at the density of 1,500 cells per well and incubated till the confluence reached about 30%. Cells were then treated with medium containing varying concentrations of compounds for 72 h at 37° C. in 5% CO2. […] For MTT assay, after incubation for 72 h, the medium containing compounds was replaced by FBS-free medium with 1 mg/mL MTT for 4 h incubation. DMSO was added to each well when the medium containing MTT was removed after incubation. The absorbance was measured at 570 and 630 nm. Cells incubated with medium containing 1% DMF only were used as controls. […] The absorbance was tested at 570 and 630 nm. […]

[7] = system: human lung carcinoma A549 cells
Description: as §1, §4

[8] = system: Human breast adenocarcinoma MCF-7 cells
Description: Human breast adenocarcinoma MCF-7, human colorectal carcinoma HCT116, human lung carcinoma A549, and cisplatin-resistant A549cisR cells were cultured in DMEM containing 10% FBS and 100 units penicillin/streptomycin. […] All cells were incubated at 37° C. in 5% CO2.
as §2, §3

[9] = system: cisplatin-resistant A549cisR cells
Description: as §1, §2, §3

[10] = system: cisplatin-resistant A2780cisR cells
Description: as §1, §2, §3

With `N.N.[Cl][Pt][Cl]` [cDDP, cis-diamminedichloroplatinum] the “RF (Resistant Factor)” value ([1]; IC50 in A549cisR/IC50 in A549 cells) was 4.3 and the “RF (Resistant Factor)” value ([2]; IC50 in A2780CisR/IC50 in A2780 cells) was 16.
In the case of `[NH2][Pt]([NH2])([Cl])([Cl])([O]C(=O)COc1ccc(/C=C/C(=O)c2ccc(Cl)c(Cl)c2)cc1)[O]C(=O)COc1ccc(/C=C/C(=O)c2ccc(Cl)c(Cl)c2)cc1` [chalcoplatin], the IC50 at 72 h [3] is reported as 9 ± 0.4 µM.
For `[NH2][Pt]([NH2])([OH])([Cl])([Cl])[O]C(=O)COc1ccc(/C=C/C(=O)c2ccc(Cl)c(Cl)c2)cc1` [monochalcoPt(IV)], the IC50 at 72 h [3] was 0.11 ± 0.03 µM, the “fold increase in cytotoxicity compared with cisplatin” value [4] was ≤ 422 fold and the “IC50 (cytotoxicity, MTT assay)” value ([1]; A549cisR cells, 72 h drug treatment) was “nanomolar”. For the same compound, the “IC50 (cytotoxicity, MTT assay)” value ([2]; A2780cisR cells, 72 h drug treatment) was “nanomolar”.
With Chalcone the IC50 [5] was 65.1 ± 9 µM, the IC50 [6] was > 35 µM and the IC50 [7] was > 40 µM. The IC50 [8] was > 50 µM, the IC50 [9] was > 40 µM and the IC50 [10] was > 35 µM.
